Patent publication US7001920B2, “Formate salt of O-desmethyl-venlafaxine” (Wyeth, priority 2002, dated 2006)

Assays:
[1] = Rat intestinal perfusion test (in situ), effective intestinal permeability Peff; format: in vivo; conditions: for Peff ODV Fumarate: 50 μg/ml in pH 6.8 perfusion buffer
Experimental: O-desmethyl venlafaxine formate was evaluated for oral absorption characteristics. The rat intestinal perfusion model was used.
Rat Intestinal Perfusion Test
(§1) The rat intestine perfusion technique is a direct way to measure the regional absorption properties of a test compound in the gastrointestinal tract. Rat intestinal permeability coefficient (Peff) can be used to predict human in vivo oral absorption of passively absorbed compounds. Fagerholm, M. Johansson, and H. Lennernäs, ? Comparison between permeability coefficients in rat and human jejunum”, Pharm. […] Other characteristics such as formulable Maximum Absorbable Dose (MAD), FDA Biopharmaceutical Classification, etc. can also be estimated.
Perfusion buffer (PB) consisted of KC1 (5.4 mM), NaC1 (48 mM), Na2HPO4 (28 mM), NaH2PO4 (43 mM), mannitol (35 mM), polyethylene glycol (PEG)-4000 (0.1%, w/v), glucose (10 mM). The pH was adjusted to 6.8 with NaOH and osmolarity was adjusted to 290+10 mOsm/l with 1.0 M NaC1. Before the experiment, ^14C-PEC-4000 (0.02 μCi/mL), 3H-mannitol (0.025 μCi/mL), metoprolol (20 μg/mL), and ODV formate or fumarate (50 μg/mL) were added.
Rats used in this study were Charles River CD males, ranging in weight from approximately 300–350 grams.
Metoprolol (a well-absorbed and passively transported compound) was used as a standard and tested simultaneously along with the ODV compounds. Glucose (a well-absorbed and actively transported compound) was used to monitor the physiological functionality of the intestinal barriers. ^14C-labeled PEG-4000 was used as a non-absorbable marker to describe the water flux across the intestinal wall. ^3H-labeled mannitol was used as a paracellularly transported marker to indicate the integrity of the intestinal tight junctions.
All chemicals were of analytical grade. After each experiment, all the analytical assays were performed promptly. For isotope determinations, 0.5 mL of perfusate sample containing ^14C PEG-4000 and ^3H-mannitol was mixed with 5 mL of scintillation cocktail. Radioactivity was counted in a liquid scintillation counter (Wallac 1409). Glucose concentration was determined by the glucose oxidase method (Biochemistry Analyzer). Metoprolol and the ODV compounds were analyzed by HPLC-UV/Vis (HP-1100 with a diode-array detector), using a YMC AQ 120μ, 5μ, 150×4.6 mm column and step gradient mobile phase containing water/0.1% TFA and acetonitrile. The ODV compounds and metoprolol were detected at 226 and 272 nm UV wavelength, respectively. Blank perfusate was assayed to evaluate the interference at these chromatographic conditions.
The perfusions were performed in three intestinal sections of anesthetized rats: duodenum-jejunum, ileum, and colon. The lengths of the segments were approximately 10–12 cm for small intestine segments and 5–6 cm for colon segments. An inflow cannula was inserted at the proximal end and an outflow cannula was inserted at the distal end. Perfusate was pumped through the segment at 0.19 mL/min, and collected at 20, 40, 55, 70, 85 and 100 minutes.
ODV formate or fumarate was added to the perfusion working buffer at a concentration of 50 μg/mL, which is approximately equivalent to a 200 mg human dose. The disappearance rates of ODV compound, metoprolol, and glucose were determined from each collection interval by comparing to the initial compound solution remaining in the syringe at the end of the 100 minutes. This is to correct for any losses due to binding to the syringe or tubing. Meanwhile, drug concentration in perfusate samples were corrected for water influx/efflux, which was computed, based on ^14C-PEG-4000 concentration changes.
Recovery of ^14C-PEG-4000 was determined to provide information on the integrity of the perfused intestinal segment: % PEGrec=(ΣPEGout/ΣPEGin)*100
Overall ^14C-PEG-4000 recovery was calculated and any data for which the individual recovery fell outside of the range of 96%–103% was excluded from the data set. […]

[2] = Human fraction of dose absorbed (Fa) predicted from rat Peff; conditions: for human in vivo Fa (fraction of dose absorbed), estimated: small intestine
Text: as §1
The fraction of dose absorbed, Fa, in human is currently predicted from (Fagerholm, M. ibid: Fa=100*(1−e^−(2*(Peff,rat+β)*(tres/r)) where […] are the correction factors, tres is the residence time in human small intestine; and r is the radius of the human small intestine. Results Rat Jejunal Perfusion Results Site-Specific Absorption of ODV Formate

Solubility in water = format: physicochemical; conditions: 26 °C, room temperature (about 25 to 27° C.)
Text: High solubility and high oral absorption are desireable characteristics of a drug, making this salt form of O desmethyl venlafaxine a particularly useful form of O-desmethyl venlafaxine.

Norepinephrine reuptake = conditions: in vitro; read-out: Inhibition of amine reuptake (IC50): Norepinephrine; cited from earlier work
Dopamine reuptake = conditions: in vitro; read-out: Inhibition of amine reuptake (IC50): Dopamine; cited from earlier work
Opiate = conditions: cited from earlier work
Histamine H1 = conditions: cited from earlier work
D2 = conditions: cited from earlier work
Serotonin reuptake = conditions: in vitro; read-out: Inhibition of amine reuptake (IC50): Serotonin; cited from earlier work
[3] = in vivo, i.p.; cited from earlier work
Cholinergic = conditions: cited from earlier work
Adrenergic a = conditions: cited from earlier work
[4] = male, CD, in vivo, 100 min, 50 μg/mL, pH 6.8

## COCCc1ccc(OCC(O)CNC(C)C)cc1 (centres unmarked) [Metoprolol]
[1]; colon, metoprolol 20 μg/mL tested simultaneously with ODV formate
  Peff Metoprolol: 0.583 ± 0.087 10^−5 cm/sec
[1]; colon, metoprolol 20 μg/mL tested simultaneously with ODV fumarate
  Peff Metoprolol: 11 10^−5 cm/sec
[1]; ileum, metoprolol 20 μg/mL tested simultaneously with ODV formate
  Peff Metoprolol: 3.22 ± 0.07 10^−5 cm/sec
[1]; ileum, metoprolol 20 μg/mL tested simultaneously with ODV fumarate
  Peff Metoprolol: 5.3 10^−5 cm/sec
[1]; jejunum, metoprolol 20 μg/mL tested simultaneously with ODV formate
  Peff Metoprolol: 2.50 ± 0.11 10^−5 cm/sec
[1]; jejunum, metoprolol 20 μg/mL tested simultaneously with ODV fumarate
  Peff Metoprolol: 1.78 ± 0.93 10^−5 cm/sec

## CN(C)CC(c1ccc(O)cc1)C1(O)CCCCC1.O=C(O)/C=C/C(=O)O (centres unmarked) [ODV fumarate]
[2]; colon
  in vivo Fa (fraction of dose absorbed), estimated: 0%
[2]
  human in vivo Fa (fraction of dose absorbed), estimated: 33–45%
[1]; colon
  Absorption in the colon: no measurable absorption
  Peff ODV Fumarate / Peff Metoprolol: 0
  Peff ODV Fumarate: 0 10^−5 cm/sec
[1]; ileum
  Peff ODV Fumarate / Peff Metoprolol: 0.19 ± 0.06
  Peff ODV Fumarate: 0.678 ± 0.295 10^−5 cm/sec
[1]; jejunum
  Peff ODV Fumarate / Peff Metoprolol: 0.09
  Peff ODV Fumarate: 0.245 10^−5 cm/sec
[1]; small intestine (jejunum to ileum)
  Peff values in the small intestine: 0.24–0.68 10^−5 cm/sec

## CN(C)CC(c1ccc(O)cc1)C1(O)CCCCC1.O=CO (centres unmarked) [ODV formate, O-desmethylvenlafaxine formate]
[2]
  human in vivo Fa (fraction of dose absorbed), estimated: about 80%
Solubility in water
  solubility: > 425 mg/mL
[1]; [4]
  Peff as percent of metoprolol's Peff value: about 12%
  Peff values in the small intestine: 1.34–2.18 10^−5 cm/sec

## CN(C)CC(c1ccc(O)cc1)C1(O)CCCCC1 (centres unmarked) [O-desmethylvenlafaxine, 1-[2-(dimethylamino)-1-(4-phenol)ethyl]cyclohexanol]
Norepinephrine reuptake
  IC50: 1.16 µM
Dopamine reuptake
  IC50: 13.4 µM
Opiate
  Affinity for Various Neuroreceptors (% inhibition at 1 uM): Opiate: 7%
Histamine H1
  Affinity for Various Neuroreceptors (% inhibition at 1 uM): Histamine H1: 0%
D2
  Affinity for Various Neuroreceptors (% inhibition at 1 uM): D2: 6%
Serotonin reuptake
  IC50: 0.18 µM
[3]
  Reversal of Reserpine-Induce Hypothermia (minimum effect): 3 mg/kg i.p.
Cholinergic
  Affinity for Various Neuroreceptors (% inhibition at 1 uM): Cholinergic: 7%
Adrenergic a
  Affinity for Various Neuroreceptors (% inhibition at 1 uM): Adrenergic a: 0%
